The target of the first experiment is T1, acetylcholine muscarinic M1 receptor (Homo sapiens, UniProt P11229).
T1 construct: expressed in transfected cells; host or cells: CHOnfat cells (CHO cells with an NFAT reporter) expressing hM1, kept under Geneticin selection
T1 sequence (P11229 1-460): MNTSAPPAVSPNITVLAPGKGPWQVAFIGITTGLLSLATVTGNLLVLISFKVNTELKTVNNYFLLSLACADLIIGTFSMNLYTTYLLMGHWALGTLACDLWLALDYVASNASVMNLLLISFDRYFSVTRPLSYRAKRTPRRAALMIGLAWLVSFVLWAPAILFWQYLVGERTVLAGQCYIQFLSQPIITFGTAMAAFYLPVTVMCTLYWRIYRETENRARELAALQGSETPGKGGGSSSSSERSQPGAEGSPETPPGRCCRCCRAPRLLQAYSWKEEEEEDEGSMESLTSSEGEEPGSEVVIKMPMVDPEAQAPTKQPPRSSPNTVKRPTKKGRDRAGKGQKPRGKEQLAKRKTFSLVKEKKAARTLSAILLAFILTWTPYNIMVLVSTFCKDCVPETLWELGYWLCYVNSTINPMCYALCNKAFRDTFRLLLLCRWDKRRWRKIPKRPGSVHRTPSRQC
Description: muscarinic FLIPR assay: intracellular calcium in CHOnfat/hM1 cells, potentiation of EC20 acetylcholine. Format: cell-based. Conditions: M1 Pot., Table 2; CHOnfat/hM1 cells, FLIPR, EC20 acetylcholine (3 nM final). How it is done:
The assay studies the effect of one or several concentrations of test compounds on basal or acetylcholine-stimulated Ca^2+ levels using FLIPR.
Compounds are prepared and subjected to a preincubation period of […]. Thereafter, a single EC20 concentration of acetylcholine is added to each well (3 nM final). The intracellular Ca^2+ level of each sample is measured and compared to an acetylcholine control to determine any modulatory activity.
Cells: CHOnfat/hM1, hM2, hM3 or hM4 cells are plated 24 hr before the assay at a density of 18,000 cells/well (100 μL) in a 384 well plate. CHOnfat/hM1 and CHOnfat/hM3 Growth Medium: 90% DMEM (Hi Glucose); 10% HI FBS; 2 mM L-glutamine; 0.1 mM NEAA; Pen-Strep; and 1 mg/ml Geneticin, are added. For M2Gqi5CHOnfat and M4Gqi5CHOnfat cells, an additional 600 ug/ml hygromycin is added.
Equipment: 384 well plate, 120 μl, addition plate; 96-well Whatman 2 ml Uniplate Incubator, 37° C., 5% CO2; Skatron EMBLA-384 Plate Washer; Multimek Pipetting System; Genesis Freedom 200 System; Mosquito System; Temo Nanolitre Pipetting System; and FLIPR^384 Fluorometric Imaging Plate Reader System are used.
Buffers. Assay Buffer: Hanks Balanced Salt Solution, with 20 mM Hepes, 2.5 mM Probenecid (Sigma P-8761) first dissolved in 1 N NaOH, 1% Bovine Serum Albumin (Sigma A-9647). Dye Loading Buffer: Assay Buffer plus 1% Fetal Bovine Serum and Fluo-4AM/Pluronic Acid Mixture. 2 mM Fluo-4AM ester stock in DMSO (Molecular Probes F-14202) Concentration of 2 μM in buffer for a final concentration of 1 μM in Assay. 20% Pluronic Acid Solution stock, with concentration of 0.04% in Buffer, 0.02% in Assay.
65 μL of 2 mM Fluo-4AM are mixed with 130 μL of 20% Pluronic Acid. The resulting solution and 650 μL FBS is added to the assay buffer for a total volume of 65 mL. Positive Controls: 4-Br-A23187: 10 mM in DMSO; final concentration 10 μM. Acetylcholine: 10 mM in water, working stock at both 20 μM and 30 μM in assay buffer, final concentration of 10 μM. This is used to check the maximum stimulation of the CHOK1/hM1 cells. 20 μM (2×) acetylcholine is added in the preincubation part of the assay, and the 30 μM (3×) stock is added in the second part. (EC20)Acetylcholine: 10 mM in water, working stock of 9 nM (3×), and final concentration in assay is 3 nM. This is used after the preincubation with test compounds. Addition of the EC20 Acetylcholine to each well with a test compound will ascertain any modulator activity. 24 wells contain 3 nM Acetylcholine alone as a control.
Determining Activity of Putative Compounds:
Screening Plate Compounds are titrated in 96-well plates (columns 2-11), 100% DMSO, started at a concentration of 15 mM (150× stock concentration), and 3-fold serial dilutions using Genesis Freedom200 System. Four 96-well plates are combined into a 384-well plate using Mosquito Nanolitre Pipetting System by transferring 1 μl of serial diluted compounds to each well, and 1 mM acetylcholine (100× stock concentration) were added as a control. Using Temo, 49 μl assay buffer is added to each well of the 384-well plate right before assay.
In a 96-well Whatman 2 ml Uniplate, 9 nM Acetylcholine (3×) is pipetted into wells corresponding to the screening compounds, and into control wells. The 30 μM acetylcholine control (3×) is added into control wells, and the 3× agonist plate is transferred into a 384 well plate.
Cells are washed three times with 100 μL of buffer, leaving […] of buffer in each well. Using Multimek, 30 μL of Dye Loading Buffer is added into each well and incubated at 37° C., 5% CO2 for up to one hr.
After 60 min, the cells are washed three times with 100 μL of buffer, leaving 30 μL of buffer in each well. The cell plate, screening plate, and agonist addition plates are placed on the platform in the FLIPR and the door closed. A signal test to check background fluorescence and basal fluorescence signal is performed. Laser intensity is adjusted if necessary.
As to `C#CC1(F)CCN(Cc2cc3c(c4ncccc24)CN(c2cccc(OC(=O)N(C)C)c2)C3=O)CC1` [Example 130, 3-{5-[(4-ethynyl-4-fluoropiperidin-1-yl)methyl]-7-oxo-7,9-dihydro-8H-pyrrolo[3,4-h]quinolin-8-yl}phenyl dimethylcarbamate], the EC50 came out at 1430 nM.

Still in this experiment, the particulars now being: Table 1; CHOnfat/hM1 cells, FLIPR, EC20 acetylcholine (3 nM final); read-out: M1 Pot.
On to `O=C1c2cc(CN3CCCC(F)(F)C3)c3ccccc3c2CN1C1CCCCC1O` (centres unmarked) [Example 18, 5-[(3,3-difluoropiperidin-1-yl)methyl]-2-(2-hydroxycyclohexyl)-1,2-dihydro-3H-benzo[e]isoindol-3-one], for which the EC50 worked out at 160 nM.

Take `N#CC1(c2ccccn2)CCN(Cc2cc3c(c4ccccc24)CN([C@@H]2CCCC[C@H]2O)C3=O)CC1` [Example 46, 1-({2-[(1R,2R)-2-hydroxycyclohexyl]-3-oxo-2,3-dihydro-1H-benzo[e]isoindol-5-yl}methyl)-4-pyridin-2-ylpiperidine-4-carbonitrile]: the EC50 amounted to 539 nM.

Regarding `O=C1c2cc(CN3CCC(F)(c4ccccc4)CC3)c3ccccc3c2CN1[C@@H]1CCCC[C@H]1O` [Example 53, 5-[(4-fluoro-4-phenylpiperidin-1-yl)methyl]-2-[(1R,2R)-2-hydroxycyclohexyl]-1,2-dihydro-3H-benzo[e]isoindol-3-one], the EC50 was 248 nM.

For the compound `O=C1c2cc(CN3CCCC3)c3ccccc3c2CN1C1CCCCC1O` (centres unmarked) [Example 23, 2-(2-Hydroxycyclohexyl)-5-(pyrrolidin-1-ylmethyl)-1,2-dihydro-3H-benzo[e]isoindol-3-one], the EC50 came to 3800 nM.

As to `Cn1cc(N2CCN(Cc3cc4c(c5ccccc35)CN(C3CCCOC3)C4=O)CC2)cn1` (centres unmarked) [Example 83, 5-{[4-(1-methyl-1H-pyrazol-4-yl)piperazin-1-yl]methyl}-2-(tetrahydro-2H-pyran-3-yl)-1,2-dihydro-3H-benzo[e]isoindol-3-one], the EC50 was 3870 nM.

With `Cn1cc(N2CCN(Cc3cc4c(c5ccccc35)CN(C3CCOCC3)C4=O)CC2)cn1` [Example 82, 5-{[4-(1-methyl-1H-pyrazol-4-yl)piperazin-1-yl]methyl}-2-(tetrahydro-2H-pyran-4-yl)-1,2-dihydro-3H-benzo[e]isoindol-3-one], the EC50 worked out at 1590 nM.

On to `O=C1c2cc(CN3CCN(c4cc5ccccc5cn4)CC3)c3ccccc3c2CN1c1ccccc1F` [Example 84, 2-(2-fluorophenyl)-5-[(4-isoquinolin-3-ylpiperazin-1-yl)methyl]-1,2-dihydro-3H-benzo[e]isoindol-3-one], for which the EC50 is 3270 nM.

As for `O=C1c2cc(CN3CCC(F)CC3)c3ccccc3c2CN1C1CCCCC1O` (centres unmarked) [Example 26, 5-[(4-fluoropiperidin-1-yl)methyl]-2-(2-hydroxycyclohexyl)-1,2-dihydro-3H-benzo[e]isoindol-3-one], the EC50 came out at 160 nM.

Still in this experiment, the particulars now being: Table 2; CHOnfat/hM1 cells, FLIPR, EC20 acetylcholine (3 nM final); read-out: M1 Pot.
For the compound `O=C1c2cc(CN3CCN(c4cccnc4)CC3)c3cccnc3c2CN1C1CCCCC1O` (centres unmarked) [Example 162, 8-(2-hydroxycyclohexyl)-5-[(4-pyridin-3-ylpiperazin-1-yl)methyl]-8,9-dihydro-7H-pyrrolo[3,4-h]quinolin-7-one], the EC50 amounted to 28 nM.

`O=C1c2cc(CN3CCCC(F)C3)c3cccnc3c2CN1C1CCCCC1O` (centres unmarked) [Example 121, 5-[(3-fluoropiperidin-1-yl)methyl]-8-(2-hydroxycyclohexyl)-8,9-dihydro-7H-pyrrolo[3,4-h]quinolin-7-one]: the EC50 worked out at 108 nM.

In the case of `O=C1c2cc(CN3CCN(c4ccncc4)CC3)c3cccnc3c2CN1C1CCCCC1O` (centres unmarked) [Example 160, 8-(2-hydroxycyclohexyl)-5-[(4-pyridin-4-ylpiperazin-1-yl)methyl]-8,9-dihydro-7H-pyrrolo[3,4-h]quinolin-7-one], the EC50 is 110 nM.

`O=C1c2cc(CN3CCC(F)(Cc4ccccc4)CC3)c3cccnc3c2CN1C1CCCCC1O` (centres unmarked) [Example 134, 5-[(4-benzyl-4-fluoropiperidin-1-yl)methyl]-8-(2-hydroxycyclohexyl)-8,9-dihydro-7H-pyrrolo[3,4-h]quinolin-7-one]: the EC50 came out at 207 nM.

For the compound `N#CC1(c2ccccc2)CCN(Cc2cc3c(c4ncccc24)CN([C@H]2CCCC[C@@H]2O)C3=O)CC1` [Example 136, 1-({8-[(1S,2S)-2-hydroxycyclohexyl]-7-oxo-8,9-dihydro-7H-pyrrolo[3,4-h]quinolin-5-yl}methyl)-4-phenylpiperidine-4-carbonitrile], the EC50 amounted to 14 nM.

As for `COc1ccc(N2CCN(Cc3cc4c(c5ncccc35)C(C)N(C3CCCCC3O)C4=O)CC2)cc1` (centres unmarked) [Example 169, 8-(2-hydroxycyclohexyl)-5-{[4-(4-methoxyphenyl)piperazin-1-yl]methyl}-9-methyl-8,9-dihydro-7H-pyrrolo[3,4-h]quinolin-7-one], the EC50 was 590 nM.

For the compound `CC1c2c(cc(CN3CCC(c4ccccc4)CC3)c3cccnc23)C(=O)N1C1CCCCC1O` (centres unmarked) [Example 140, 8-(2-hydroxycyclohexyl)-9-methyl-5-[(4-phenylpiperidin-1-yl)methyl]-8,9-dihydro-7H-pyrrolo[3,4-h]quinolin-7-one], the EC50 stood at 3200 nM.

As to `O=C1c2cc(CN3CCC(C(F)(F)F)CC3)c3cccnc3c2CN1C1CCCCC1O` (centres unmarked) [Example 123, 8-(2-hydroxycyclohexyl)-5-{[4-(trifluoromethyl)piperidin-1-yl]methyl}-8,9-dihydro-7H-pyrrolo[3,4-h]quinolin-7-one], the EC50 was determined as 97 nM.

Regarding `O=C1c2cc(CN3CCC(F)CC3)c3cccnc3c2CN1C1CCCCC1O` (centres unmarked) [Example 91, 5-[(4-fluoropiperidin-1-yl)methyl]-8-(2-hydroxycyclohexyl)-8,9-dihydro-7H-pyrrolo[3,4-h]quinolin-7-one], the EC50 came to 88 nM.

As for `CC1c2c(cc(CN3CCN(c4cccnc4)CC3)c3cccnc23)C(=O)N1C1CCCCC1O` (centres unmarked) [Example 164, 8-(2-hydroxycyclohexyl)-9-methyl-5-[(4-pyridin-3-ylpiperazin-1-yl)methyl]-8,9-dihydro-7H-pyrrolo[3,4-h]quinolin-7-one], the EC50 was determined as 36 nM.

The experiment is the same for the next values; noted with them: Table 3; inflection point calculated from the FLIPR values; EC20 acetylcholine (3 nM final); read-out: IP Value.
Turning to `N#CC1(c2ccccn2)CCN(Cc2cc3c(c4ccccc24)CN([C@H]2CCCC[C@@H]2O)C3=O)CC1` [Example 1, 1-({2-[(1S,2S)-2-Hydroxycyclohexyl]-3-oxo-2,3-dihydro-1H-benzo[e]isoindol-5-yl}methyl)-4-(pyridine-2-yl)piperidine-4-carbonitrile], the EC50 was 10 nM.

Source of the values: patent publication US9206200B2, “N-linked lactam M1 receptor positive allosteric mogulators” (Merck Sharp & Dohme Corp., priority 2011, dated 2015).
